Data published in article PMC3176149, “Application of Celluspots peptide arrays for the analysis of the binding specificity of epigenetic reading domains to modified histone tails” (BMC Biochemistry, 2011).
Entries after “also recorded” stand apart in the source; their conditions may differ.

Tests used:
[1] = tested on: Dnmt3a PWWP domain (residues 279-420); assay: Binding of GST-fused Dnmt3a PWWP domain to modified histone peptides on Celluspots peptide arrays; parameters: species or system murine; details: Dnmt3a PWWP GST fusion 50 nM, room temperature, 2 hours, interaction buffer pH 7.5, ECL, tested at least two times
Experimental: In the present study, the binding specificities of seven known reading domains were analyzed using Celluspots peptide arrays comprising 384 peptides from 8 different regions of the N-terminal histone tails, viz. H3 1-19, 7-26, 16-35 and 26-45, H4 1-19 and 11-30, H2A 1-19 and H2B 1-19. The arrays are commercially available from Active Motif and feature 59 post-translational modifications (most of them identified, some of them hypothetical) in many different combinations (Additional file 1). Binding of the GST fused reading domain proteins to peptide arrays was visualized using an anti-GST antibody, followed by a secondary anti-goat-HRP antibody and ECL detection system. The domains were selected to represent the different folds of reading domains and show a wide range of specificities. […] Each reading domain was tested at least two times on the peptide arrays to ensure that the results are reliable. […] The binding intensities for each tested reading domain were analyzed with the Array Analyze program, which calculates the average of the binding intensities to corresponding peptide spots in both copies of the array and prepares a graphical output - one scatter plot illustrating the binding intensities observed at corresponding spots in both copies of the array and a bar diagram showing the distribution of deviations of the binding intensities to the corresponding spots. […]

[2] = tested on: JMJD2A double Tudor domain; details: ref [14],[17],[18]; cited from earlier work
From the text: (§1) The Tudor domain folds into a ß-sandwich flanked by one α-helix.

[3] = tested on: 53BP1 tandem Tudor domain; details: ref [14],[15]; cited from earlier work
From the text: as §1

[4] = tested on: JMJD2A double Tudor domain (residues 856-1047); assay: Binding of GST-fused JMJD2A double Tudor domain to modified histone peptides on Celluspots peptide arrays; parameters: species or system human; details: JMJD2A double Tudor GST fusion 10 nM, room temperature, 2 hours, interaction buffer pH 7.5, ECL, tested at least two times
Experimental: (§2) In the present study, the binding specificities of seven known reading domains were analyzed using Celluspots peptide arrays comprising 384 peptides from 8 different regions of the N-terminal histone tails, viz. H3 1-19, 7-26, 16-35 and 26-45, H4 1-19 and 11-30, H2A 1-19 and H2B 1-19. The arrays are commercially available from Active Motif and feature 59 post-translational modifications (most of them identified, some of them hypothetical) in many different combinations (Additional file 1). Binding of the GST fused reading domain proteins to peptide arrays was visualized using an anti-GST antibody, followed by a secondary anti-goat-HRP antibody and ECL detection system. […] In case of weak signals, the experiment was repeated with higher protein concentration. In case of an overexposed image, the protein concentration was reduced. For quality control, each glass slide contains two identical copies of the array. […] The sequences encoding human HP1ß full length (residues 1-185), the Chromo domain of human MPP8 (residues 58-112), the double Tudor domain of human JMJ[…] (residues 856-1047), the tandem Tudor domain of human 53BP1 (residues 1490-1608), the PHD finger of human Rag2 (residues 311-520) and the second Bromo domain of human BRD2 (residues 348-455) were amplified from cDNA derived from HEK293 cells and cloned as GST fusion proteins into the pGEX-6P-2 vector (GE Healthcare).

[5] = tested on: Dnmt3a PWWP domain; details: SPOT arrays and follow-up experiments; ref [19]; cited from earlier work
Experimental: These binding modules are about 50 amino acids long and contain two binding sites for zinc ions. The PHD finger of Rag2, an essential component of the Rag1/2 V(D)J recombinase, which mediates antigen-receptor gene assembly, interact ... || Another reading domain which was tested on the Celluspots peptide arrays is the PWWP domain of Dnmt3a. […] Since there is only one H3K36me3-modified peptide spot, the effect of enhancing or inhibiting secondary modifications could not be studied in this case. […] Since peptide arrays are screening tools, unexpected or novel results need to be confirmed by equilibrium peptide binding experiments using purified peptides. In our experience, such studies often confirmed results from peptide arrays. For example in the case of the Dnmt3a PWWP domain, binding ...

[6] = tested on: 53BP1 tandem Tudor domain (residues 1490-1608); assay: Binding of GST-fused 53BP1 tandem Tudor domain to modified histone peptides on Celluspots peptide arrays; parameters: species or system human; details: 53BP1 tandem Tudor GST fusion 1 μM, room temperature, 2 hours, interaction buffer pH 7.5, ECL, tested at least two times
Experimental: as §2

## H3K36me2: H3K36me2 modified histone tail peptide on Celluspots array
[1]
  binding to modified histone tail peptides (array signal): weaker binding signal in comparison to H3K36me3

## H4K20me2: H4K20me2 modified histone tail peptide on Celluspots array
[2]
  binding to JMJD2A double Tudor domain (literature): interact preferentially; also recorded: reported to bind
[3]
  interaction with 53BP1 tandem Tudor domain (literature): reported to interact; also recorded: shown to interact
[4]
  binding to modified histone tail peptides (array signal): next best bound modification on the peptide array

## H3K36me3: H3K36me3-modified peptide spot on Celluspots array (only one)
[1]
  binding to modified histone tail peptides (array signal): specifically bound
[5]
  interaction with Dnmt3a PWWP domain (literature): specific interaction; also recorded: could be verified by peptide binding, pull-down of native nucleosomes and functional DNA methylation experiments; also recorded: shown to read H3K36me3

## H4K20me1: H4K20me1 modified histone tail peptide on Celluspots array
[6]
  binding to modified histone tail peptides (array signal): not observed on the peptide array
[3]
  interaction with 53BP1 tandem Tudor domain (literature): reported to interact
